Reference: paper PMC6314990 (Forensic Toxicology, 2018)

Experiments:
[1] = tested on: pentobarbital-induced sleep in mice; test: Cannabinoid-induced potentiation of pentobarbital-induced sleep and effect of CB1 receptor antagonists; type: in vivo, ddY mice; details: for Prolongation of pentobarbital-induced sleep compared with vehicle-pretreated group (Veh + Veh): cannabinoid 10 mg/kg i.v., pentobarbital 40 mg/kg i.p. 15 min later, male ddY mice, n = 8
Procedure: For the pharmacological studies, cannabinoids and antagonists were suspended in saline containing 1% Tween 80. Sodium pentobarbital was dissolved in saline and injected intraperitoneally (i.p.; 40 mg/kg) for the mice. Male ddY mice weighing 20–25 g were housed in groups of 8. All animals were kept in a temperature-controlled (25 °C) environment with a 12-h light–dark cycle (lights on at 7:00 a.m.) and received food and water ad libitum. […] One percent Tween 80-saline solution was injected instead of cannabinoids or antagonists for the vehicle treated group as a control.

CB1 receptor = CB1 receptor (Mus musculus, UniProt P47746)
CB1 receptor, sequence (P47746 whole entry): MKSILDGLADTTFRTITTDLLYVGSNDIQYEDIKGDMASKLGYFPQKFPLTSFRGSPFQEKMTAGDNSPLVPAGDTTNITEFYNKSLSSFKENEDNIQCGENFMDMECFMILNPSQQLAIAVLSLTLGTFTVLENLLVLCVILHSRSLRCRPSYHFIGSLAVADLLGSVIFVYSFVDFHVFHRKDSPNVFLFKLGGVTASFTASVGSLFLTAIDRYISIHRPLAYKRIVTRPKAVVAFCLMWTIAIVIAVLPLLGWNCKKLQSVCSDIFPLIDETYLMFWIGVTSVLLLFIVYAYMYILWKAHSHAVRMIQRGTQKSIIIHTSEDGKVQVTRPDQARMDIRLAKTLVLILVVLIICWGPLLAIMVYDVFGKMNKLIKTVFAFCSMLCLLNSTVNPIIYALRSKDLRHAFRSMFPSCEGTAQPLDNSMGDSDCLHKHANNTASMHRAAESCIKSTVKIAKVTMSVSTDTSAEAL
Procedure: Crude synaptic membranes from ddY male mice brains were prepared according to the method of Zukin et al. [32] with a slight modification. Briefly, whole mice brains were homogenized in 15 volumes of ice-cold 0.32 M sucrose for 1 min with a Polytron homogenizer (Kinematica, Lucerne, Switzerland), followed by centrifugation at 1000 g for 10 min at 4 °C. The pellet was discarded and the supernatant was centrifuged at 20000g for 20 min at 4 °C. This pellet was homogenized for 15 s in 40 volumes of ice-cold distilled water and further dispersed with a Polytron homogenizer. The suspension was then centrifuged at 8000g for 20 min at 4 °C. The supernatant and the soft buffy upper layer of the pellet were carefully collected and combined. This fraction was then centrifuged at 48000g for 20 min at 4 °C.
A ligand binding assay for the cannabinoid receptor was performed according to the method of Devane et al. [34] and Compton et al. [16]. […] The filters were then placed in glass scintillation vials with 10 ml of Clearsol and the radioactivity was counted using a liquid scintillation counter (LSC-6100, Aloka, Tokyo, Japan). […] The inhibitory constant (Ki value) was calculated according to the method of Speth et al. [35].

C=C(C)[C@@H]1CCC(C)=C[C@H]1c1c(O)cc(CCCCC)cc1O [CBD, cannabidiol]
Prolongation of pentobarbital-induced sleep compared with vehicle-pretreated group (Veh + Veh) [1]: 1.8 fold

Cc1c(C(=O)NN2CCCCC2)nn(-c2ccc(Cl)cc2Cl)c1-c1ccc(I)cc1 [AM251, N-(piperidin-1-yl)-5-(4-iodophenyl)-1-(2,4-dichlorophenyl)-4-methyl-1H-pyrazole-3-carboxamide]
Effect of antagonist on potentiating effect of ∆9-THC on pentobarbital-induced sleep, low dose ([1]; antagonist 2 mg/kg i.v., ∆9-THC 10 mg/kg i.v., pentobarbital 40 mg/kg i.p., mice): attenuated | Effect of antagonist pretreatment on potentiation of pentobarbital-induced sleep by ∆9-THC ([1]; antagonist 2–10 mg/kg i.v. 10 min before ∆9-THC 10 mg/kg i.v., pentobarbital 40 mg/kg i.p., mice): decreased dose-dependently | Effect of antagonist alone (antagonist + Veh) on pentobarbital-induced sleeping time ([1]; without ∆9-THC, pentobarbital 40 mg/kg i.p., mice): no change in pentobarbital-induced sleeping time

CCCC(C)C1(CC)C(=O)NC(=O)NC1=O (stereo not shown) [Pentobarbital, sodium pentobarbital]
Specific [3H]CP55940 binding (CB1 receptor; pentobarbital 1 mM added to the reaction mixture, control 0.055 ± 0.002, N.S. vs control): 0.050 ± 0.003 ^N.S. pmol/mg protein | Effect on specific [3H]CP55940 binding (CB1 receptor; pentobarbital 1 mM, mouse brain synaptic membrane): did not affect specific [^3H]CP55940 binding

CCCCCc1cc(O)c2c(c1)OC(C)(C)[C@@H]1CCC(C)=CC21 (stereo partly shown) [∆^9-THC, ∆^9-tetrahydrocannabinol]
Prolongation of pentobarbital-induced sleep compared with vehicle-pretreated group (Veh + Veh) [1]: 3.3 fold
